One compound from ChEMBL document CHEMBL5620360, “Design, synthesis and biological evaluation of 4-(4-aminophenoxy)picolinamide derivatives as potential antitumor agents” (Eur J Med Chem, 2023) can be followed below.

The test system of series [1] is A549. The series is described as follows: Induction of morphological changes in human A549 cells assessed as abnormal cell morphology at 1.1 uM measured after 12 hrs by acridine orange staining based fluorescence microscopy. It counts as functional.
The test system of series [2] is A549. The series is described as follows: Induction of apoptosis in human A549 cells assessed as early apoptotic cells at 5 uM measured after 24 hrs by AnnexinV-FITC/PI staining based flow cytometry (reference value: 1.26%). It counts as functional.
Series [3] relates to A549. Description: Induction of apoptosis in human A549 cells assessed as late apoptotic cells at 5 uM measured after 24 hrs by AnnexinV-FITC/PI staining based flow cytometry (reference value: 1.47%). It counts as functional. (A flow cytometer gives signals particle by particle.)
Series [4] has as its system A549. Description: Induction of cell cycle arrest in human A549 cells assessed as accumulation of cells at S phase at […] incubated for 24 hrs by propidium iodide staining based flow cytometry (reference value: 38.18%). Format: functional. Conditions: dose 2.5 µM.
The nature of series [5]: Half life in Sprague-Dawley rat at 10 mg/kg, po by LC-MS/MS analysis. It counts as ADME, organism-based. Conditions: in vivo.
For series [6], the target named is T1, Receptor-type tyrosine-protein kinase FLT3 (Homo sapiens, UniProt P36888).
T1 sequence (P36888 whole entry): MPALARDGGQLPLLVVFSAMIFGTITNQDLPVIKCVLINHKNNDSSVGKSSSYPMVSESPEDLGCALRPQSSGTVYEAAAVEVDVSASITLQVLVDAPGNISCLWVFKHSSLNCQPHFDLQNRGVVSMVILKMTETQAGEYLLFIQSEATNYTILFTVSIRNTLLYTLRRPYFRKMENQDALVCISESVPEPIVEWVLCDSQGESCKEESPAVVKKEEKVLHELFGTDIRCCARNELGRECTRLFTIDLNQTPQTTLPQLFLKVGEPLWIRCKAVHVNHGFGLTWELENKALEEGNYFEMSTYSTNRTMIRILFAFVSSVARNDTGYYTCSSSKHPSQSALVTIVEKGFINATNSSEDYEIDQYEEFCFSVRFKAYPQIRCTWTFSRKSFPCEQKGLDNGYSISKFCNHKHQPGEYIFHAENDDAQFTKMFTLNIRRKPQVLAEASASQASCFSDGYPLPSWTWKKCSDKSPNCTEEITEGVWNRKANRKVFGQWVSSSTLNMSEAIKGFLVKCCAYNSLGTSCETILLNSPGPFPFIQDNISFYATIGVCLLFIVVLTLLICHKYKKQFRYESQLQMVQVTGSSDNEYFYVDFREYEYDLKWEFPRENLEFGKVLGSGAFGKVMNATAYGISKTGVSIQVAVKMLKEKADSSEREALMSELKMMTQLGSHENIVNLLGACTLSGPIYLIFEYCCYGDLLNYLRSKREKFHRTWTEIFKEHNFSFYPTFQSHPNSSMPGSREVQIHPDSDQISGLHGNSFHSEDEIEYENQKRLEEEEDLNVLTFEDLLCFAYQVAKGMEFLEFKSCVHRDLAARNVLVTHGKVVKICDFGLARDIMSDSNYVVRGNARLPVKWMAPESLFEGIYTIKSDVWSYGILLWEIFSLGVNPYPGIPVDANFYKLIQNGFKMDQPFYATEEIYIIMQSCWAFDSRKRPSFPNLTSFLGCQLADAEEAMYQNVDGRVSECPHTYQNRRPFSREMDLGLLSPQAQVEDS
The series is described as follows: Inhibition of Flt3 (unknown origin).

The source made the active and inactive calls.

By half-life is commonly meant the time needed for the level to fall by half in the phase considered. Low readings indicate rapid decline, high ones slow decline. The term IC50 denotes the concentration at which inhibition is half-maximal. High values mean lower potency, low ones higher potency. Turning to `O=C(NCCCN1CCOCC1)c1cc(Oc2ccc(NC(=O)c3cn(-c4ccc(F)c(Cl)c4)c4ncccc4c3=O)cc2F)ccn1`, the outcome with A549 [1] was Active. The Activity amounted to 3.02% with A549 [2], 4.29% with A549 [3] and 35.16% in the series with A549 [4]. Also, in series [5], the half-life is 4.5 h. The same compound had a 50% inhibitory concentration (IC50) in series [6] above 100 µM.
